Measured values taken from patent US20110021455A1, “STERILISED SUCRALFATE GEL” (PIERRE FABRE DERMO-COSMETIQUE, priority 2008, published 2011).

Columns and labels:
[1] = Sterilisation by gamma rays; format: physicochemical; conditions: in the form of powder and gel; composition yellows
Text: In fact, after various tests, it seemed that sucralfate, both in the form of powder and gel, is unstable during sterilisation by gamma rays since the composition yellows.

[2] = Sterilisation with ethylene oxide; format: physicochemical; conditions: requires a long and costly desorption phase

sucralfate
stability during sterilisation by gamma rays [1]: unstable
adsorption of ethylene oxide on sucralfate during sterilisation [2]: substantial adsorption
